Reference: patent US8377967B2, “Piperidine derivative” (Nippon Zoki Pharmaceutical Co., Ltd., priority 2008, dated 2013)
Where a name gives a salt, the structure may show the parent alone.

Target: human histamine H1 receptor (Homo sapiens, UniProt P35367)
Experiment: In vitro human histamine H1 receptor binding experiment ([3H]pyrilamine)
Conditions: HEK293A cells stably expressing human histamine H1 receptor, [3H]pyrilamine 3 nmol/L, room temperature 60 minutes
Description: Recombinant human histamine H1 receptor plasmid (prepared by Invitrogen) was transfected to HEK293A cells with Lipofectamine 2000 (manufactured by Invitrogen). Cells stably expressing human histamine H1 receptor were screened with Geneticin (manufactured by Invitrogen). The cells were continued to be cultured using a Dulbecco's Modified Eagle Medium containing 10% fetal bovine serum, 0.1 mmol/L MEM Non-Essential Amino Acids Solution, 2 mmol/L L-glutamine and 0.7 mg/mL Geneticin in a 5% CO2 incubator at 37° C. The cells stably expressing human histamine H1 receptor were prepared using 50 mmol/L Tris-HCl (pH 7.5) (hereinafter referred to as buffer) containing 0.1% bovine serum albumin, so as to have a concentration of 3×10^6 cells/mL, to give a cell sample preparation. Fifty microliters of the buffer, 50 μl of a test substance solution at various concentrations, and 50 μL of [^3H]pyrilamine solution (final concentration: 3 nmol/L) were added to each of the wells on the 96-well plate, and stirred, and 100 μL of the cell sample preparation was then added thereto (at a concentration of 3×10^5 cells/well) to initiate the reaction.
The cells were incubated at room temperature for 60 minutes, and then filtered on UniFilter GF/C plate (manufactured by Packard) immersed in 0.5% polyethyleneimine using a cell harvester (IH-110, manufactured by INNOTECH CORPORATION), to stop the reaction, and the plate was washed with the buffer. The plate after washing was sufficiently dried, and 20 μL of a scintillator (MaxiLight, manufactured by Hidex) was added thereto, and count per minute (cpm) was measured with a multi-labeled microplate reader (Plate Chameleo II, manufactured by Hidex). The nonspecific binding was cpm in a case where 30 μmol/L pyrilamine was added. The experiments were carried out at n=3, and at least repeated 3 times.

Sequence of human histamine H1 receptor (P35367 whole entry): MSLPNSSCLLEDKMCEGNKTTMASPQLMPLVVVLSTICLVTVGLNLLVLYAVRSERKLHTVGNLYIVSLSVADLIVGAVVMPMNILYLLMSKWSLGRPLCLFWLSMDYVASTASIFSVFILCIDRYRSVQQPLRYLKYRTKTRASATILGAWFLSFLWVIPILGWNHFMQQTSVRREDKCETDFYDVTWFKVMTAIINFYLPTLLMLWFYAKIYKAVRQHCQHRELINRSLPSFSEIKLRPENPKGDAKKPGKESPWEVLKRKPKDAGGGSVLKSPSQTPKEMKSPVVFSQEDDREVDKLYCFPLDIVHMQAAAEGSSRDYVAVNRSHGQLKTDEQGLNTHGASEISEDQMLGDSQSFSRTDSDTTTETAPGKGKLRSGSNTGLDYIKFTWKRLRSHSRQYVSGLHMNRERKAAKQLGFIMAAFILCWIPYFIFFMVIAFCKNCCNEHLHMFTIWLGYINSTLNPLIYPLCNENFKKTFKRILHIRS

Point of comparison: `CCOC(=O)Cc1ccc2c(c1)C(=C1CCN(C)CC1)c1sccc1CC2` [Compound 147, Ethyl[4-(1-methylpiperidin-4-ylidene)-9,10-dihydro-4H-3-thiabenzo[f]azulen-6-yl]acetate hydrochloride], IC50 0.00404 µM. Against it:
- CCOC(=O)CCc1cc2c(s1)CCc1ccccc1C2=C1CCN(C)CC1 [Compound 97, Ethyl 3-[4-(1-methylpiperidin-4-ylidene)-9,10-dihydro-4H-1-thiabenzo[f]azulen-2-yl]propionate] — 4.2-fold higher, 0.0169 µM
- CC(C(=O)O)c1ccc2c(c1)C(=C1CCN(C)CC1)c1sccc1CO2 (stereo not drawn) [Compound 57, 2-[4-(1-Methylpiperidin-4-ylidene)-4,10-dihydro-9-oxa-3-thiabenzo[f]azulen-6-yl]propionic acid hydrochloride] — 17-fold higher, 0.0701 µM
- CCOC(=O)Cc1ccc2c(c1)C(=C1CCN(C)CC1)c1ccsc1CC2 [Compound 106, Ethyl[4-(1-methylpiperidin-4-ylidene)-9,10-dihydro-4H-1-thiabenzo[f]azulen-6-yl]acetate hydrochloride] — 1.7-fold higher, 0.00704 µM
- COC(=O)CCCc1ccc2c(c1)C(=C1CCN(C)CC1)c1sccc1CO2 [Compound 123, Methyl 4-[4-(1-methylpiperidin-4-ylidene)-4,10-dihydro-9-oxa-3-thiabenzo[f]azulen-6-yl]butyrate hydrochloride] — within 1.5-fold, 0.00312 µM
- CN1CCC(=C2c3ccccc3CCc3sc(C(=O)NO)cc32)CC1 [Compound 78, N-Hydroxy-{[4-(1-methylpiperidin-4-ylidene)-9,10-dihydro-4H-1-thiabenzo[f]azulen-2-yl]}carboxamide] — 16-fold higher, 0.0651 µM
- N#CCCN1CCC(=C2c3ccccc3CCc3sc(C(=O)O)cc32)CC1 [Compound 94, {4-[1-(2-Cyanoethyl)piperidin-4-ylidene]-9,10-dihydro-4H-1-thiabenzo[f]azulen-2-yl}carboxylic acid] — 17-fold higher, 0.069 µM
- COC(=O)CCCCc1ccc2c(c1)C(=C1CCN(C)CC1)c1sccc1CO2 [Compound 156, Methyl 5-[4-(1-methylpiperidin-4-ylidene)-4,10-dihydro-9-oxa-3-thiabenzo[f]azulen-6-yl]valerate hydrochloride] — 2.4-fold higher, 0.00966 µM
- CCOC(=O)C=Cc1cc2c(s1)C(=O)Cc1ccccc1C2=C1CCN(C)CC1 [Compound 47, Ethyl 3-[4-(1-methylpiperidin-4-ylidene)-10-oxo-9,10-dihydro-4H-1-thiabenzo[f]azulen-2-yl]acrylate] — 7.3-fold higher, 0.0293 µM
- CN1CCC(=C2c3cc(CCCCC(=O)O)ccc3OCc3ccsc32)CC1 [Compound 157, 5-[4-(1-Methylpiperidin-4-ylidene)-4,10-dihydro-9-oxa-3-thiabenzo[f]azulen-6-yl]valeric acid] — 22-fold higher, 0.0905 µM
- CCCNC(=O)c1cc2c(s1)CCc1ccccc1C2=C1CCN(C)CC1 [Compound 85, N-Propyl-{[4-(1-methylpiperidin-4-ylidene)-9,10-dihydro-4H-1-thiabenzo[f]azulen-2-yl]}carboxamide] — 6.8-fold higher, 0.0275 µM
- CN1CCC(=C2c3ccccc3CCc3sc(C(N)=O)cc32)CC1 [Compound 31, [4-(1-Methylpiperidin-4-ylidene)-9,10-dihydro-4H-1-thiabenzo[f]azulen-2-yl]carboxamide] — 4.1-fold higher, 0.0164 µM
- CCOC(=O)c1ccc2c(c1)C(=C1CCN(CC)CC1)c1sccc1CC2 [Compound 160, Ethyl 4-(1-ethylpiperidin-4-ylidene)-9,10-dihydro-4H-3-thiabenzo[f]azulene-6-carboxylate] — within 1.5-fold, 0.00558 µM
- CCOC(=O)C(C)(C)c1cc2c(s1)CCc1ccccc1C2=C1CCN(CC)CC1 [Compound 154, Ethyl 2-[4-(1-ethylpiperidin-4-ylidene)-9,10-dihydro-4H-1-thiabenzo[f]azulen-2-yl]-2-methylpropionate hydrochloride] — 6.3-fold higher, 0.0256 µM
- COC(=O)CCc1ccc2c(c1)C(=C1CCN(CCNS(C)(=O)=O)CC1)c1sccc1CO2 [Compound 195, Methyl 3-{4-[1-(2-methanesulfonylaminoethyl)piperidin-4-ylidene]-4,10-dihydro-9-oxa-3-thiabenzo[f]azulen-6-yl}propionate hydrochloride] — 2.9-fold higher, 0.0117 µM
- CCOC(=O)c1cc2c(s1)C(=C1CCN(C)CC1)c1ccccc1OC2 [Compound 44, Ethyl[4-(1-methylpiperidin-4-ylidene)-4,10-dihydro-9-oxa-3-thiabenzo[f]azulen-2-yl]carboxylate hydrochloride] — 4.8-fold higher, 0.0192 µM
- CC(C(=O)O)c1cc2c(s1)C(=C1CCN(C)CC1)c1ccccc1CC2 (stereo not drawn) [Compound 60, 2-[4-(1-Methylpiperidin-4-ylidene)-9,10-dihydro-4H-3-thiabenzo[f]azulen-2-yl]propionic acid hydrochloride] — 15-fold higher, 0.0591 µM
- CCOC(=O)Nc1cc2c(s1)CCc1ccccc1C2=C1CCN(C)CC1 [Compound 75, 2-Ethoxycarbonylamino-4-(1-methylpiperidin-4-ylidene)-9,10-dihydro-4H-1-thiabenzo[f]azulene] — 19-fold higher, 0.0748 µM
- CCOC(=O)COCCN1CCC(=C2c3ccccc3CCc3sc(C(=O)OCC)cc32)CC1 [Compound 110, Ethyl {4-[1-(2-ethoxycarbonylmethoxyethyl)piperidin-4-ylidene]-9,10-dihydro-4H-1-thiabenzo[f]azulen-2-yl}carboxylate hydrochloride] — 5.8-fold higher, 0.0234 µM
- COC(=O)Cc1ccc2c(c1)C(=C1CCN(CCCN3CCCCC3)CC1)c1sccc1CO2 [Compound 163, Methyl {4-[1-(3-piperidin-1-yl-propyl)piperidin-4-ylidene]-4,10-dihydro-9-oxa-3-thiabenzo[f]azulen-6-yl}acetate dihydrochloride] — 22-fold higher, 0.0908 µM
- CN1CCC(=C2c3ccccc3CCc3cc(NC(=O)OC(C)(C)C)sc32)CC1 [Compound 10, 2-t-Butoxycarbonylamino-4-(1-methylpiperidin-4-ylidene)-9,10-dihydro-4H-3-thiabenzo[f]azulene] — 22-fold higher, 0.0885 µM
- CCN1CCC(=C2c3cc(CCCC(=O)OC)ccc3OCc3ccsc32)CC1 [Compound 141, Methyl 4-[4-(1-ethylpiperidin-4-ylidene)-4,10-dihydro-9-oxa-3-thiabenzo[f]azulen-6-yl]butyrate hydrochloride] — 1.7-fold higher, 0.00677 µM
- CCOC(=O)C=Cc1cc2c(s1)CCc1ccccc1C2=C1CCN(CC)CC1 [Compound 158, Ethyl 3-[4-(1-ethylpiperidin-4-ylidene)-9,10-dihydro-4H-1-thiabenzo[f]azulen-2-yl]acrylate] — 12-fold higher, 0.047 µM
- CCOC(=O)Cc1cc2c(s1)C(=C1CCN(C)CC1)c1ccccc1CC2 [Compound 23, Ethyl[4-(1-methylpiperidin-4-ylidene)-9,10-dihydro-4H-3-thiabenzo[f]azulen-2-yl]acetate hydrochloride] — within 1.5-fold, 0.0035 µM
- CN1CCC(=C2c3ccccc3CCc3sc(C(=O)NCCF)cc32)CC1 [Compound 77, N-(2-Fluoroethyl)-{[4-(1-methylpiperidin-4-ylidene)-9,10-dihydro-4H-1-thiabenzo[f]azulen-2-yl]}carboxamide] — 9.4-fold higher, 0.0378 µM
- OCCc1ccc2c(c1)C(=C1CCN(CCO)CC1)c1sccc1CO2 [Compound 122, 2-{4-[1-(2-Hydroxyethyl)piperidin-4-ylidene]-4,10-dihydro-9-oxa-3-thiabenzo[f]azulen-6-yl}ethanol] — 3.3-fold higher, 0.0134 µM
- CN1CCC(=C2c3cc(CO)ccc3CCc3sccc32)CC1 [Compound 104, 6-(2-Hydroxymethyl)-4-(1-methylpiperidin-4-ylidene)-9,10-dihydro-4H-1-thiabenzo[f]azulene] — within 1.5-fold, 0.0048 µM
- CC(O)CNC(=O)c1cc2c(s1)CCc1ccccc1C2=C1CCN(C)CC1 (stereo not drawn) [Compound 70, N-(2-Hydroxypropyl)-{[4-(1-methylpiperidin-4-ylidene)-9,10-dihydro-4H-1-thiabenzo[f]azulen-2-yl]}carboxamide] — 23-fold higher, 0.0933 µM
- COC(=O)Cc1ccc2c(c1)C(=C1CCN(CCCNS(C)(=O)=O)CC1)c1sccc1CO2 [Compound 193, Methyl {4-[1-(3-methanesulfonylaminopropyl)piperidin-4-ylidene]-4,10-dihydro-9-oxa-3-thiabenzo[f]azulen-6-yl}acetate hydrochloride] — 3.2-fold higher, 0.0131 µM
- CCOC(=O)c1cc2c(s1)C(=O)Cc1ccccc1C2=C1CCN(C)CC1 [Compound 50, Ethyl[4-(1-methylpiperidin-4-ylidene)-10-oxo-9,10-dihydro-4H-1-thiabenzo[f]azulen-2-yl]carboxylate] — 4.2-fold higher, 0.0169 µM
- CC(CO)NC(=O)c1cc2c(s1)CCc1ccccc1C2=C1CCN(C)CC1 (stereo not drawn) [Compound 71, N-(1-Hydroxyprop-2-yl)-{[4-(1-methylpiperidin-4-ylidene)-9,10-dihydro-4H-1-thiabenzo[f]azulen-2-yl]}carboxamide] — 15-fold higher, 0.062 µM
- CCOC(=O)c1ccc2c(c1)C(=C1CCN(C)CC1)c1ccsc1CC2 [Compound 95, Ethyl[4-(1-methylpiperidin-4-ylidene)-9,10-dihydro-4H-1-thiabenzo[f]azulen-6-yl]carboxylate] — 3.7-fold higher, 0.0149 µM
- CC(=O)NCc1cc2c(s1)CCc1ccccc1C2=C1CCN(C)CC1 [Compound 20, 2-Acetylaminomethyl-4-(1-methylpiperidin-4-ylidene)-9,10-dihydro-4H-1-thiabenzo[f]azulene hydrochloride] — 3.8-fold higher, 0.0152 µM
